“Also recorded” adds a separate entry of the source. Where a name gives a salt, the structure may show the parent alone. Read-outs that look alike come from different tables or passages of the source.
How the values were obtained:
[1] = no APD clinical test described in the patent; cited from earlier work
[2] = Toxicity (DL50) in Swiss mice; format: in vivo, both male and female; conditions: mouse, in vivo, Swiss mice male and female
From the text: (§1) In vivo, the degree of toxicity of AHEDP has been determined in Swiss mice, both male and female by various routes of administration and by comparison with some of the best known and used diphosphonates.

calvaria cells = assay: cells; format: cell-based, Wistar rats
Procedure: Cellular culture; the cells are first cultured in accordance with the method reported by Fast, et al., (Biochemical Journal, 172, 97-107 (1978). In short, calvaria removed from Wistar rats one day old has been digested with collagenase. The freed cells have been placed on plates in a concentration of […] per ml of medium in Petri dishes of 3.5 cm diameter containing 1.5 ml of medium in dishes of 1.6 cm diameter containing 0.5 ml of medium. The cells have been cultivated in the essential minimum medium containing 10% of fetal calf serum in an atmophere of 5% CO2 at 37° C. up to the seventh or eighth day. The diphosphonates have been added on the first day up to the end of the experiment.
The cells have been counted with a Coulter counter after having been freed from the dishes by digestion with a mixture of collagenase and trypsin. On the seventh day, the mixture has been changed and the cells have been incubated for sixteen hours. The so obtained lactate during this period has been measured according to the method of Fast, et al.

Solubility = format: physicochemical
[3] = test system: demineralizing osteopathias, characterized by a high rate of bone reabsorption; assay: Clinical study: metabolism of phosphorus and calcium, indexes of bone reabsorption; format: in vivo
From the text: In view of the favorable pharmacological and toxicological results, the substance, AHEDP, has been tested clinically. The study deals with the effects on the metabolism of phosphorus and calcium of the new diphosphonate according to the present invention used in the treatment of demineralizing osteopathias, characterized by a high rate of bone reabsorption.
(§2) Six individuals affected by the bone disease called Paget's condition, that is three men and three women of age between 52 and 68; three individuals affected by metastatic osteolysis, resulting from mammary carcinoma, that is three women between age 42 and 59 years old.
(§3) In eight cases, that is five individuals affected by Paget's disease and three individuals affected by osteolysis, the treatment has been carried out for fifteen days (in one of the cases of the individuals affected by Paget's disease, treatment continued for an additional fifteen days of therapy with a higher dosage); in the ninth case of the individual affected by Paget's disease, the treatment was continued for thirty days.
(§4) The first four cases, that is two individuals affected by Paget's disease and two individuals affected by osteolysis, have received dosage of AHEDP of 5 mg daily by the intravenous route (slow infusion); in the fifth case, the individual affected by Paget's disease, received a dose of 10 mg daily for fifteen days and then 20 mg daily for an additional period of fifteen days. Three other cases, that is two individuals affected by Paget's disease and one individual affected by osteolysis have been administered doses of 20 mg daily for fifteen days. The ninth individual affected by Paget's disease, has been treated with doses of 40 mg daily for 30 days.
(§5) Several parameters have been studied prior to the treatment, during the treatment and at the end of the treatment with respect to the metabolism of phosphorus and calcium and the tolerability of the substance.
calcemia, phosphatemia, alkaline phosphatasemia, plasmatic PGE2, plasmatic iPTH, calciuria, phosphaturia, hydroxyprolinuria, cyclic nephrogenic AMP.

bone reabsorption = assay: Bone reabsorption and in vivo calcification (mineral density in the tibia metaphysis, body weight); parameters: species or system Wistar rats
Procedure: Groups of five Wistar rats of weight between 180 and 200 grams have been treated for seven days with 0.01, 0.1, 1.0 and 10 mg P/kg of AHEDP or with a physiological solution by the subcutaneous route. The animals have been fed with Altromine 1314 containing 1.1 gram per 100 grams of calcium, 1.2 grams per 100 grams P and 250 IU per 100 grams of Vitamin D3. On the eighth day, the animals were killed and the tibia bones are removed and fixed in 50% ethanol. The tibia bones were then prepared for the histological examination and sections of 70-80μ thickness have been prepared for the microradiological study. This procedure has permitted an estimate of the mineral density in the metaphysis (Schenk, et al. Calc. Tiss. Res. 11, 196-214, 1973).

Swiss mice = assay: Toxicity (DL50) in Swiss mice; format: in vivo, both male and female
From the text: as §1

[4] = Clinical study: tolerability; format: in vivo
From the text: as §2, §3, §4, §5
Hemochromocytometric examination, proteinemia, glycemia, azotemia, creatininemia, transaminasemia, immunoglobulin.

Toxicity (DL50) in rats = conditions: rat, in vivo, iv; I.v., rats (footnote *)
[5] = solutions, very low concentrations; cited from earlier work
[6] = oral route or systemic route; cited from earlier work
[7] = Rattus norvegicus, read-out: No. of Cells, % of control ± E.S.

NCCC(O)(P(=O)([O-])O)P(=O)([O-])O.[Na+].[Na+] [APD, 3-Amino-1-hydroxypropane-1,1-diphosphonic acid disodium salt]
alterations in body temperature and hematic crasia (comparison analog) [1]: causes substantial alterations in the parameters discussed hereinabove | LD50 ([2]; ip, I.p.): 190 mg/kg | LD50 ([2]; iv, I.v.): 45 mg/kg | LD50 ([2]; po, OS (orally)): 625 mg/kg | activity at 2.5 µM (calvaria cells; [7]): 90.8 ± 2.1% | activity at 25 µM (calvaria cells; [7]): 64.9 ± 4.1% | activity at 250 µM (calvaria cells; [7]): 0%

NCCCCCC(O)(P(=O)(O)O)P(=O)(O)O [AHEDP, 6-amino-1-hydroxyhexane-1,1-diphosphonic acid]
solubility in HCl (Solubility; HCl of average concentration): dissolves in HCl of average concentration | solubility in water (Solubility; water): little soluble in water | solubility with NaOH (Solubility; water with addition of one equivalent of NaOH): dissolves completely by addition of one equivalent of NaOH | plasmatic PGE2 ([3]; 10 mg daily, one individual with Paget's disease): has not caused any change in this parameter | osteolysis and plasmatic alkaline phosphatase (both parameters) ([3]; 40 mg daily, one individual): a reduction of both parameters | alkaline phosphatasemia ([3]; 40 mg daily, one individual (Paget's disease in active phase)): clear and rapid decrease of the alkaline phosphatasemia levels | urinary excretion of inorganic calcium and inorganic phosphates ([3]; 5-10 mg daily): have not modified to a significant degree | alkaline phosphatasemia / indexes of osteoblastic activity ([3]; 5-10-20 mg daily): have not been modified; also recorded: have not caused significant modifications in the plasmatic alkaline phosphatase | osteolysis ([3]; 5-10-20 mg daily): blocking osteolysis | indexes of parathyroid activity (plasmatic immunoreactive PTH, cyclic nephrogenic AMP) ([3]; 5-10-20-40 mg daily): have not caused significant modification changes in the indexes of parathyroid activity | plasmatic PGE2 ([3]; 20-40 mg daily, three individuals with Paget's disease and high prior levels): substantial and rapid decrease in the plasmatic PGE2 in all three individuals | urinary excretion of inorganic calcium and inorganic phosphates ([3]; 20-40 mg daily, obvious particularly in phosphaturia): significant increases of these two parameters | urinary excretion of hydroxyproline ([3]; all the individuals treated): reduced to a significant extent in all the individuals treated; also recorded: prompt and progressive reduction of the urinary excretion of hydroxyproline | calcium and phosphate levels of the plasma ([3]; every dosage used): has not caused variations worth mentioning | hyperphosphatemia ([3]; human, in vivo): phases of hyperphosphatemia have not been observed | calcemia ([3]; very short periods of some treatments): a low degree of calciemic contents have been noted | hydroxyprolinuria, dependence on dosage ([3]; with respect to the values prior to treatment): so much greater with respect to the values prior to treatment, the higher the dosage | density of the bone (bone reabsorption; 0.01 mg P/kg, subcutaneous, seven days): no effect on the density of the bone | inhibition of the bone reabsorption (bone reabsorption; 0.1 mg and particularly 1 mg P/kg): a clear inhibition of the bone reabsorption | density of the metaphyses (bone reabsorption; 0.1 mg and particularly 1 mg P/kg, subcutaneous, seven days): an increase in the density of the metaphyses | influence on the body weight (bone reabsorption; 0.01, 0.1, 1.0 mg P/kg, subcutaneous, seven days): No treatment has shown any influence on the body weight | influence on the body weight (bone reabsorption; 10 mg P/kg, subcutaneous, seven days): except in the dose of 10 mg P/kg, which obviously has no significant value | inhibition of the bone reabsorption, in words and in comparison with other well-known diphosphonates (bone reabsorption; rat, in vivo): powerful inhibitor of the bone reabsorption in a degree superior or similar to that of other well-known diphosphonates | degree of toxicity (in words) (Swiss mice; every route of administration): low degree of toxicity in every route of administration | tolerance in comparison with the analog ADP (Swiss mice; mouse, in vivo): superior tolerance | LD50 ([2]; ip, I.p.): 650 mg/kg | LD50 ([2]; iv, I.v.): 85 mg/kg | LD50 ([2]; po, OS (orally)): > 2000 mg/kg | tolerability ([4]; 5-40 mg daily intravenous, 15-30 days): well tolerated; also recorded: tolerated in all cases | variations in the parameters of tolerability ([4]; hemochromocytometric examination, proteinemia, glycemia, azotemia, creatininemia, transaminasemia, immunoglobulin): has not caused significant variations in the parameters of tolerability | increase of the body temperature or variation in the hematic crasia ([4]; human, in vivo): in none of the individuals treated, there has been observed an increase of the body temperature or any variation in the hematic crasia | modifications of the hematic crasia and hepatic and renal functions ([4]; human, in vivo): nor have substantial modifications of the hematic crasia and hepatic and renal functions been noted | side effects ([4]; human, in vivo): no side effects of any significance have been noted; also recorded: no undesirable side effects have been noted | effect on the number of cells (in words) (calvaria cells; 250 μM): some reductions, although slightly in the number of cells | effect on the production of the lactate (in words) (calvaria cells; 250 μM): increase in the production of the lactate | activity at 0.25 µM (calvaria cells; Rattus norvegicus, 0.25 μM, read-out: No. of Cells, % of control ± E.S.): 96.6 ± 1.7% | activity at 2.5 µM (calvaria cells; Rattus norvegicus, 2.5 μM, * = significance with respect to the control (APD), read-out: No. of Cells, % of control ± E.S.): 95.7 ± 7.8% | activity at 25 µM (calvaria cells; Rattus norvegicus, 25 μM, * = significance with respect to the control (APD), read-out: No. of Cells, % of control ± E.S.): 104 ± 2.1% | activity at 250 µM (calvaria cells; Rattus norvegicus, 250 μM, * = significance with respect to the control (AHEDP), read-out: No. of Cells, % of control ± E.S.): 88.4 ± 1.5% | cellular toxicity, times less than APD (calvaria cells; compared with the analog APD): about 100 times less | effect on the cellular behavior (calvaria cells; concentrations lower than 250 μM): no negative effect is noted on the cellular behavior

CC(O)(P(=O)(O)O)P(=O)(O)O [EHDP, Ethane-1-hydroxy-1,1-diphosphonic acid disodium salt]
LD50 ([2]; ip, I.p.): 250 mg/kg | LD50 ([2]; po, OS (orally)): 2000 mg/kg | LD50 (Toxicity (DL50) in rats): 35 mg/kg

O=P(O)(O)OP(=O)(O)O [pyrophosphate]
precipitation of calcium phosphate [5]: capable of inhibiting the precipitation of calcium phosphate | hydrolysis on administration [6]: rapid hydrolysis

O=P([O-])([O-])C(Cl)(Cl)P(=O)(O)O.[Na+].[Na+] [Cl2 MDP, Dichloromethylenediphosphonic acid disodium salt]
LD50 ([2]; ip, I.p.): 780 mg/kg | LD50 ([2]; iv, I.v.): 75 mg/kg | LD50 ([2]; po, OS (orally)): > 2000 mg/kg

From patent US4578376A, “Pharmaceutical compositions for the treatment of osteopathias” (Istituto Gentili S.p.A., priority 1981, dated 1986)
